According to US7825231B2 (priority 2005, dated 2010):
Entries after “also recorded” stand apart in the source; their conditions may differ.

How the values were obtained:
Type in all cases: in vivo, rat
[1] = system: male Sprague-Dawley rats; assay: CFA model of inflammatory pain: mechanical allodynia (von Frey hairs); details: three days after CFA injury
Description: (§1) Mechanical allodynia induced by SNL was determined by assessing the response of paw withdrawal to von Frey hairs of graded tensile strength as described previously with a tactile stimulus producing a 50% likelihood of withdrawal determined using the up-down method(53, 71, 72). Thermal hyperalgesia was determined using a Hargreaves apparatus recording the time to withdrawal from a radiant thermal stimulus positioned directly under the hind paw(73). Parametric statistics, using the general linear model for repeated measures were used to identify significant effects of treatment condition on the behavioral measure of neuropathic pain. The results were examined for a main effect of treatment group. All statistical analyses were performed using the software package, SPSS 13.0 for Windows (SPSS Inc., Chicago, Ill.).
(§2) Inflammatory injury was induced by injection of 150 μL CFA in the left-hind paw of male Sprague-Dawley rats.
Mechanical allodynia was tested using von Frey hair stimulation as described in Example 2. […] The antiallodynic effect of vEM2 was reversed by intrathecal (FIG. 5B) or intraperitoneal (FIG. 5C) administration of Nal-M.

[2] = system: male Sprague-Dawley rats; assay: CFA model of inflammatory pain: weight bearing (incapacitance analgesia meter); details: three days after CFA injury
Description: as §2
Weight-bearing ability in the CFA model was measured using an incapacitance analgesia meter. […] The effect of vEM2 was reversed by intrathecal (FIG. 7B) or intraperitoneal (FIG. 7C) administration of Nal-M.

[3] = system: male Sprague-Dawley rats; assay: CFA model of inflammatory pain: thermal hyperalgesia (Hargreaves apparatus); details: three days after CFA injury
Description: as §1, §2
Thermal hyperalgesia was tested using a Hargreaves apparatus as in Example 2.

[4] = system: rats with SNL; assay: Spinal nerve ligation model of neuropathic pain: thermal hyperalgesia (Hargreaves apparatus); details: intrathecal
Text: (§3) The spinal nerve ligation model was utilized to produce mechanical allodynia and thermal hyperalgesia, hallmarks of neuropathic pain(41).
(§4) Male Sprague-Dawley rats weighing 225 to 250 g underwent selective L5 SNL with the approval of the University Committee on Use and Care of Animals(53). Under isoflurane anesthesia, an incision was made in the atlanto-occipital membrane, a polyethylene (PE-10) catheter, filled with 0.9% saline, was advanced 8.5 cm caudally to position its tip at the level of the lumbar enlargement. The rostral tip of the catheter was passed subcutaneously, externalized on top of the skull, and sealed with a stainless-steel plug. One week after implantation of the intrathecal catheter, L5 spinal nerve ligation (SNL) was performed. […]
(§5) Mechanical allodynia induced by SNL was determined by assessing the response of paw withdrawal to von Frey hairs of graded tensile strength as described previously with a tactile stimulus producing a 50% likelihood of withdrawal determined using the up-down method(53, 71, 72). Thermal hyperalgesia was determined using a Hargreaves apparatus recording the time to withdrawal from a radiant thermal stimulus positioned directly under the hind paw(73). […]

[5] = system: rats with SNL; assay: Spinal nerve ligation model of neuropathic pain: mechanical allodynia (von Frey hairs); details: intrathecal
Text: as §3, §4, §5

[6] = 10 days after vEM2 in rats with SNL

| Compound | effect on the antiallodynic effect of vEM2 (mechanical threshold) ([1]; intraperitoneal) | effect on the antiallodynic effect of vEM2 (mechanical threshold) ([1]; intrathecal) | effect on the effect of vEM2 (weight bearing differential) ([2]; intraperitoneal) | effect on the effect of vEM2 (weight bearing differential) ([2]; intrathecal) | effect on the anti-hyperalgesic effect of vEM2 (thermal latency) ([3]; intraperitoneal) | effect on the anti-hyperalgesic effect of vEM2 (thermal latency) ([3]; intrathecal) | effect on the antihyperalgesic effect produced by vEM2 [4, 6] | effect on thermal latency, given alone ([4]; normal animals, data not shown) | effect on the antiallodynic effect produced by vEM2 [5, 6] | effect on mechanical threshold, given alone ([5]; normal animals, data not shown) |
| --- | --- | --- | --- | --- | --- | --- | --- | --- | --- | --- |
| C=CC[N+]1(C)CC[C@]23c4c5ccc(O)c4O[C@H]2C(=O)CC[C@@]3(O)[C@H]1C5 (stereo partly shown) [Nal-M, naloxone-methiodide] | reversed | reversed | reversed | reversed | reversed | not significantly affected; also recorded: did not significantly counteract | – | – | – | – |
| CTOP | – | – | – | – | – | – | reversed | did not affect | reversed | did not affect |
